Source: article PMC10096175, “An In Vitro Antimicrobial, Anticancer and Antioxidant Activity of N–[(2–Arylmethylthio)phenylsulfonyl]cinnamamide Derivatives” (Molecules, 2023)
In brackets after ≈: the same amount, converted by molar mass. Like-named read-outs stand apart in the source and are kept apart here.

What was measured:
[1] = system: cancer cells (HeLa, SKOV-3, MCF-7); test: MTT assay, summary statements on the cancer cells; type: cell-based; conditions: Homo sapiens, cell line not specified
E. hirae ATCC 10541 = test: MIC determination, reference strain (microdilution); type: cell-based; conditions: Enterococcus hirae, ATCC10541; E. hirae ATCC 10541; Co-trimoxazole as sulfamethoxazole/trimethoprim; read-out: MIC
C. albicans ATCC 10231 = test: MIC determination, reference fungal strain (microdilution); type: cell-based; conditions: Candida albicans, ATCC10231; C. albicans ATCC 10231; read-out: MIC
[2] = system: S. epidermidis ATCC 14990; test: MIC determination, reference strain (microdilution); type: cell-based; conditions: Staphylococcus epidermidis, ATCC14990; S. epidermidis ATCC 14990; Co-trimoxazole as sulfamethoxazole/trimethoprim; read-out: MIC
HeLa cells = test: MTT assay; type: cell-based, human; conditions: for IC50: HeLa, MTT, 24 h treatment; for Selectivity index (SI): IC50 HEK-293 / IC50 HeLa
HEK-293 cells = test: MTT assay, noncancerous cells; type: cell-based; conditions: Homo sapiens, HEK293; HEK-293; MTT, 24 h treatment; read-out: IC50
ABTS assay = conditions: ABTS radical scavenging; 10 min, 30 °C
Experimental: The ABTS assay was performed spectrophotometrically. […] ABTS solution with methanol/DMSO (9/1 v/v) was used as a control. After 10 min of incubation at 30 °C in the dark, the absorbance was analyzed at λ = 750 nm by a 96-well microplate reader (Epoch, BioTek System, Santa Clara, CA, USA). Ascorbic acid was used as a standard.
ABTS inhibition was calculated by the following equation:ABTS Inhibition (%) = [Acontrol − Asample)/Acontrol] × 100%
(§1) IC50 values of the samples were calculated using program GraFit v. 7.0 (Erithacus Software). The analysis was performed three times, with tree replications in each (n = 9). Statistical analysis was performed with one-way ANOVA with Tuckey’s post-hoc test.

in vitro = conditions: sheep, defibrinated sheep blood diluted 1:9 v/v with PBS, pH 7
C. diphtheriae = test: MIC determination, reference strain (microdilution); type: cell-based; conditions: Corynebacterium diphtheriae; C. diphtheriae; Co-trimoxazole as sulfamethoxazole/trimethoprim; read-out: MIC
S. aureus ATCC 6538 = test: as above; type: cell-based; conditions: Staphylococcus aureus, ATCC6538; S. aureus ATCC 6538; ± SD; Co-trimoxazole as sulfamethoxazole/trimethoprim; read-out: MIC
B. subtilis ATCC 6633 = test: as above; type: cell-based; conditions: Bacillus subtilis, ATCC6633; B. subtilis ATCC 6633; Co-trimoxazole as sulfamethoxazole/trimethoprim; read-out: MIC
MCF-7 cells = test: MTT assay; type: cell-based, human; conditions: for IC50: Homo sapiens, MCF7, MCF-7, MTT, 24 h treatment, read-out: IC50; for Selectivity index (SI): IC50 HEK-293 / IC50 MCF-7
E. coli ATCC 8739 = test: MIC determination, reference strain (microdilution); type: cell-based; conditions: Escherichia coli, ATCC8739; E. coli ATCC 8739; Co-trimoxazole as sulfamethoxazole/trimethoprim; read-out: MIC
[3] = system: clinical strains of Enterococcus sp.; test: MIC on clinical Enterococcus strains; type: cell-based; conditions: Enterococcus sp. 3937152; read-out: MIC
SKOV-3 cells = test: MTT assay; type: cell-based, human; conditions: for IC50: Homo sapiens, SK-OV-3, SKOV-3, MTT, 24 h treatment, read-out: IC50; for Selectivity index (SI): IC50 HEK-293 / IC50 SKOV-3
DPPH assay = conditions: DPPH radical scavenging; 40 min, room temperature
Experimental: The DPPH assay was performed spectrophotometrically. The amount of 30 µL of different concentrations of samples, dissolved in methanol/DMSO (9/1 v/v), was mixed with 170 µL of 0.06 mM DPPH methanolic solution and completed with methanol to a final volume of 300 µL. DPPH methanolic solution with methanol/DMSO (9/1 v/v) was used as a control. After 40 min of incubation at room temperature in the dark, the absorbance was analyzed at λ = 510 nm by a 96-well microplate reader (Epoch, BioTek System, Santa Clara, CA, USA). Ascorbic acid was used as a standard.
DPPH inhibition was calculated by the following equation:DPPH Inhibition (%) = [Acontrol − Asample)/Acontrol] × 100%
as §1

E. faecalis ATCC 51299 = test: MIC determination, reference strain (microdilution); type: cell-based; conditions: Enterococcus faecalis, ATCC51299; E. faecalis ATCC 51299; Co-trimoxazole as sulfamethoxazole/trimethoprim; read-out: MIC
[4] = system: clinical methicillin-resistant S. aureus (MRSA) strains; test: MIC on clinical MRSA strains; type: cell-based; conditions: Staphylococcus aureus, MRSA / VISA; strains MRSA12673, MRSA21804, MRSA18532, MRSA12647 and MRSAN315 VISA
Source text: In the next step, we evaluated the compounds on clinical methicillin-resistant S. aureus (MRSA) strains (Figure 2) and methicillin-resistant coagulase-negative Staphylococcus (MRCNS) (Figure 3). The group of CNS includes nonpathogenic or opportunistic pathogens, while coagulase-positive staphylococci are represented by S. aureus. About 30% of the human population carries S. aureus in the upper respiratory tract. Infections caused by S. aureus include all purulent skin conditions (boils, abscesses, folliculitis) and nosocomial infections. The strains isolated from hospitals are usually antibiotic-resistant, where MRSA strains are the majority. Staphylococcus epidermidis (like other coagulase-negative Staphylococcus) is included in the microflora of human skin and can easily cause surface contamination after surgical procedures.
Sterile sheep blood defibrinated (GrasoBiotech). Co-trimoxazole (composition sulfamethoxazole 400 mg/trimethoprim 80 mg; WZF Polfa Poland). Ketoconazole (WZF Polfa Poland). Bacteria: Enterococcus hirae ATCC 10541 and Enterococcus faecalis ATCC 51299, Staphylococcus epidermidis ATCC 14990, Staphylococcus aureus ATCC 6538, clinical strains Staphylococcus aureus MRSA, clinical strains Staphylococcus sp. […]

[5] = system: Staphylococcus sp. and Enterococcus sp.; test: MIC, summary statements on reference Gram-positive cocci; type: cell-based; conditions: Staphylococcus and Enterococcus species, reference Gram-positive cocci (range over strains)
Experimental: Sterile sheep blood defibrinated (GrasoBiotech). Co-trimoxazole (composition sulfamethoxazole 400 mg/trimethoprim 80 mg; WZF Polfa Poland). Ketoconazole (WZF Polfa Poland). Bacteria: Enterococcus hirae ATCC 10541 and Enterococcus faecalis ATCC 51299, Staphylococcus epidermidis ATCC 14990, Staphylococcus aureus ATCC 6538, clinical strains Staphylococcus aureus MRSA, clinical strains Staphylococcus sp. (MRCNS), clinical strain Staphylococcus epidermidis MRSE, clinical strain Enterococcus sp., Corynebacterium diphtheriae ZMF, Bacillus subtilis ATCC 6633, Escherichia coli ATCC 8739, Candida albicans ATCC 10231. Brain-heart infusion broth (BHI, Becton Dickinson) for Enterococcus hirae ATCC 10541 and Enterococcus faecalis ATCC 51299, BHI supplement with 10% bovine serum for Bacillus subtilis, Corynebacterium diphtheriae ZMF, Staphylococcus epidermidis ATCC 14990, Staphylococcus aureus ATCC 6538, clinical strains Staphylococcus aureus MRSA, clinical strains Staphylococcus sp. (CNS), clinical strain Staphylococcus epidermidis MRSE grew in Mueller-Hinton broth (MH cation-adjusted, Becton Dickinson) in an aerobic atmosphere at 37 °C for 48 h, in an aerobic atmosphere at 37 °C for 72 h. Candida albicans grew in Sabourauda broth (Sb, Becton Dickinson), in an aerobic atmosphere at 37 °C for 72 h. After determination of the bacterial viability, BHI blood agar plates, MH agar plates, and Sb agar plates were used.
The MIC determination for the reference and clinical strains was performed based on the methodology described by Kula et al.. The dry test samples were dissolved in dimethyl sulfoxide (DMSO) and diluted in water, resulting in a finale concentration of about 500 µg/mL. These solutions were diluted and added to the first well of each microtiter line. Dilution in geometric progression was done by transferring the mixture/dilution (100 μL) from the first to the twelfth well. An aliquot (100 μL) was discarded from the twelfth well. The final concentration of the samples used in the antimicrobial activity assay ranged from 125 to 0.006 µg/mL. Co-trimoxazole (for bacteria), with the composition sulfamethoxazole 400 mg/trimethoprim 80 mg was used as a reference compound in the concentration range of 20 000/4000 to 1/0.2 µg/mL. Ketoconazole (for fungi) was used as a reference compound in the concentration range of 125 to 0.006 µg/mL. Tests were incubated in adequate conditions described by Kula et al.. Diluent concentration had no effect on the activity of the tested compounds. All experiments were carried out three times.

[6] = Homo sapiens, 24 h, read-out: IC50

Row | IC50 ([1]; MTT) | IC50 ([1]; µg/mL bound converted) | MIC (E. hirae ATCC 10541) | MIC (C. albicans ATCC 10231) | MIC [2] | IC50 (HeLa cells) | IC50 (HeLa cells; [6]) | IC50 ABTS (ABTS assay) | MIC (C. diphtheriae) | MIC (S. aureus ATCC 6538) | MIC (B. subtilis ATCC 6633) | IC50 (MCF-7 cells) | MIC (E. coli ATCC 8739) | IC50 (SKOV-3 cells) | IC50 DPPH (DPPH assay) | MIC (E. faecalis ATCC 51299) | SMILES | Selectivity index (SI) (HeLa cells) | IC50 (HEK-293 cells) | Selectivity index (SI) (MCF-7 cells) | Selectivity index (SI) (SKOV-3 cells) | also measured
1 | < 10 µg/mL | ≤ 20 µM | 8 ± 0.15 µg/mL (≈ 13.8 µM) | > 125 µg/mL | 2 ± 0.76 µg/mL (≈ 3.44 µM) | 9.99 ± 0.08 µg/mL (≈ 17.2 µM) | < 10 µg/mL | 419.18 ± 2.72 µg/mL (≈ 721 µM) | 62.5 ± 0.29 µg/mL (≈ 107 µM) | 4 ± 0.16 µg/mL (≈ 6.88 µM) | 125 ± 0.29 µg/mL (≈ 215 µM) | 16.3 ± 0.27 µg/mL (≈ 28.1 µM) | > 125 µg/mL | 15.3 ± 0.16 µg/mL (≈ 26.4 µM) | 574.41 ± 1.34 µg/mL (≈ 988 µM) | 8 ± 0.15 µg/mL (≈ 13.8 µM) | Cc1cc(S(=O)(=O)NC(=O)/C=C/c2ccc([N+](=O)[O-])cc2)c(SCc2cc3c(cc2Cl)OCO3)cc1Cl [Compound 17d, (E)–N–{4–Chloro–2–[(6–chlorobenzo[d][1,3]dioxol–5–yl)methylthio]–5–methylphenylsulfonyl}–3–(4–nitrophenyl)acrylamide] | 1.5 | 15.4 ± 0.69 µg/mL (≈ 26.4 µM) | 0.9 | 1.0 | hemolysis at 24 h, 31.25 µg/mL (in vitro): 12 to 20%; MIC [3]: > 125 µg/mL
2 | < 10 µg/mL | ≤ 20 µM | 2 ± 0.58 µg/mL (≈ 3.25 µM) | > 125 µg/mL | 1 ± 0.58 µg/mL (≈ 1.63 µM) | 8.49 ± 0.49 µg/mL (≈ 13.8 µM) | < 10 µg/mL | 569.99 ± 7.9 µg/mL (≈ 926 µM) | > 125 µg/mL | 1 ± 0.29 µg/mL (≈ 1.63 µM) | 62.5 ± 0.29 µg/mL (≈ 102 µM) | 13 ± 0.66 µg/mL (≈ 21.1 µM) | > 125 µg/mL | 13.15 ± 0.05 µg/mL (≈ 21.4 µM) | 790.52 ± 1.44 µg/mL (≈ 1280 µM) | 2 ± 0.58 µg/mL (≈ 3.25 µM) | Cc1cc(S(=O)(=O)NC(=O)/C=C/c2ccc(Br)cc2)c(SCc2cc3c(cc2Cl)OCO3)cc1Cl [Compound 17a, (E)-3-(4-Bromophenyl)-N-{4-chloro-2-[(6-chlorobenzo[d][1,3]dioxol-5-yl)methylthio]-5-methylphenylsulfonyl}acrylamide] | 0.8 | 6.49 ± 0.46 µg/mL (≈ 10.5 µM) | 0.5 | 0.5 | MIC [4]: 8 to 16 µg/mL (≈ 13 to 26 µM); MIC [5]: 1 to 2 µg/mL (≈ 1.63 to 3.25 µM)
3 | < 10 µg/mL | ≤ 20 µM | 2 ± 0.58 µg/mL (≈ 3.8 µM) | > 125 µg/mL | 2 ± 0.58 µg/mL (≈ 3.8 µM) | – | 11.2 ± 0.2 µg/mL (≈ 21.3 µM) | 622.23 ± 2.25 µg/mL (≈ 1180 µM) | > 125 µg/mL | 1 ± 0.29 µg/mL (≈ 1.9 µM) | 62.5 ± 0.29 µg/mL (≈ 119 µM) | 11.2 ± 0.08 µg/mL (≈ 21.3 µM) | > 125 µg/mL | 9.28 ± 1.02 µg/mL (≈ 17.6 µM) | 620.47 ± 0.67 µg/mL (≈ 1180 µM) | 2 ± 0.58 µg/mL (≈ 3.8 µM) | Cc1cc(S(=O)(=O)NC(=O)/C=C/c2ccc(F)cc2)c(SCc2cccc3ccccc23)cc1Cl [Compound 16c, (E)–N–{4–Chloro–5–methyl–2–[(naphthalen–1–yl)methylthio]phenylsulfonyl}–3–(4–fluorophenyl)acrylamide] | 0.7 | 7.67 ± 0.21 µg/mL (≈ 14.6 µM) | 0.7 | 0.8 | MIC [5]: 1 to 2 µg/mL (≈ 1.9 to 3.8 µM)
